Consider 20 compounds from patent publication US20210379077A1, “TOPOISOMERASE II CATALYTIC INHIBITOR COMPOUND THERAPEUTICS FOR CANCER TREATMENT, METHODS AND USES” (The University of British Columbia, priority 2018, published 2021).

For one data set, the system named is Cancer Cell. Description: Cancer cell growth inhibition. Also on record: key: Y is an indication that activity was found. It counts as cell-based. The protocol:
BrDU incorporation and cell proliferation assays—Cell proliferation rates were measured by using the CellTitre™ 96 AqueousOne™ kit (Promega™) and bromodeoxyuridine (BrdU) assay kit (Millipore™) according to the manufacturer's protocol, with minor modifications as we have previously described by Li H. et al.^19

For a further data set, the target named is T1, Topoisomerase II (Homo sapiens, UniProt P11388).
T1 construct: purchased TopoGENE (TopoGEN) TG2000H / kit TG1001
Put plainly: Topoisomerase II inhibition screening (supercoiled plasmid relaxation, then kDNA decatenation). It counts as biochemical. Also on record: key to TOP2 Inhib.: Y is an indication that activity was found. Conditions: for relative activity among compounds tested in the screening round: medium throughput relaxation and kDNA decatenation assays. The protocol: In vitro Topo II activity assays—K-DNA decatenation assays were performed using the human Topo II assay kit (TG1001, TopoGENE™) with Etoposide and ICRF193 as poison and catalytic inhibitors respectively. DNA relaxation assays were performed by incubating the supercoiled pHOT™ plasmid with human Topo IIα (TG2000H™, TopoGENE™) at 37 degrees for one hour. Reactions were stopped by adding 10% SDS, EDTA and proteinase K. Plasmid DNAs were separated on DNA agarose gel and stained with ethidium bromide for visualization.
Medium Throughput Screening Assays A supercoiled plasmid relaxation assay was used as a first, course filter to determine candidate small molecules. Small molecule candidates that were sufficiently active in the first round screening were then subject to the kDNA decatenation assay.
Second Round Screening With the discovered active compounds 19 and 23, a new screen was initiated to look for similar molecules. For this, the shape similarity screening program ROCS™^10 was used The compounds chosen for the ROCS™ search was based on the docking conformation of Compound 23. The ZINC-15 library filtered down to 6 million molecules described previously was used for this screening. The top 62 molecules were hand-picked based on their ROCS™ similarity as well as their docking scores. These molecules were ordered and tested with the same medium throughput assays previously described. A large enrichment in the proportion of active molecules was observed, of close to 10-fold relative to the first round, validating the virtual screening pipeline.

Another data set concerns K562 cells. Put plainly: γH2AX Western blot (DNA damage in cells). It counts as cell-based. Conditions: 10-20 μM, 4 hours. The protocol: Cytotoxicity was evaluated by measuring LDH levels from cell culture media; (b) K562 cells were treated with either vehicle or 10-20 μM of Top60, Etoposide and ICRF187 for 4 hours. Whole cell lyses were collected to measure γH2AX levels with vinculin as the loading control; (c) K562 cells were treated with 0, 1, 5, 10, 15 and 20 μM of Top60, 20 μM Etoposide or 20 uM ICRF187 for 48 hours. Cell proliferation rates were determined by MTS assays; and (d) K562 cells were treated with 20 μM of Top60, Etoposide or ICRF187 for 0, 24, 48 and 72 hours. Cell proliferation rates were measured by MTS assays. All results were collected from three independent experiments.
Top60 is a catalytic inhibitor of Topo II To verify that our lead Compound 60(Top60), the formation of ds DNA breaks was assayed both in and outside of cells. To assess whether Top60 causes double stranded DNA breaks outside cells, supercoiled plasmid was incubated with and without Top60 in the presence of Topo II (FIG. 1d). […] Furthermore, H2AXγ protein expression was assessed by Western blot to determine if the lead compound could cause DNA damage in cells, and compared to Etoposide as a control (FIG. 3b). […] To determine if Top60 was capable of intercalating DNA, it was incubated with relaxed plasmid at increasing concentrations and compared with m-AMSA, a known intercalator. […]

T1 sequence (P11388 whole entry): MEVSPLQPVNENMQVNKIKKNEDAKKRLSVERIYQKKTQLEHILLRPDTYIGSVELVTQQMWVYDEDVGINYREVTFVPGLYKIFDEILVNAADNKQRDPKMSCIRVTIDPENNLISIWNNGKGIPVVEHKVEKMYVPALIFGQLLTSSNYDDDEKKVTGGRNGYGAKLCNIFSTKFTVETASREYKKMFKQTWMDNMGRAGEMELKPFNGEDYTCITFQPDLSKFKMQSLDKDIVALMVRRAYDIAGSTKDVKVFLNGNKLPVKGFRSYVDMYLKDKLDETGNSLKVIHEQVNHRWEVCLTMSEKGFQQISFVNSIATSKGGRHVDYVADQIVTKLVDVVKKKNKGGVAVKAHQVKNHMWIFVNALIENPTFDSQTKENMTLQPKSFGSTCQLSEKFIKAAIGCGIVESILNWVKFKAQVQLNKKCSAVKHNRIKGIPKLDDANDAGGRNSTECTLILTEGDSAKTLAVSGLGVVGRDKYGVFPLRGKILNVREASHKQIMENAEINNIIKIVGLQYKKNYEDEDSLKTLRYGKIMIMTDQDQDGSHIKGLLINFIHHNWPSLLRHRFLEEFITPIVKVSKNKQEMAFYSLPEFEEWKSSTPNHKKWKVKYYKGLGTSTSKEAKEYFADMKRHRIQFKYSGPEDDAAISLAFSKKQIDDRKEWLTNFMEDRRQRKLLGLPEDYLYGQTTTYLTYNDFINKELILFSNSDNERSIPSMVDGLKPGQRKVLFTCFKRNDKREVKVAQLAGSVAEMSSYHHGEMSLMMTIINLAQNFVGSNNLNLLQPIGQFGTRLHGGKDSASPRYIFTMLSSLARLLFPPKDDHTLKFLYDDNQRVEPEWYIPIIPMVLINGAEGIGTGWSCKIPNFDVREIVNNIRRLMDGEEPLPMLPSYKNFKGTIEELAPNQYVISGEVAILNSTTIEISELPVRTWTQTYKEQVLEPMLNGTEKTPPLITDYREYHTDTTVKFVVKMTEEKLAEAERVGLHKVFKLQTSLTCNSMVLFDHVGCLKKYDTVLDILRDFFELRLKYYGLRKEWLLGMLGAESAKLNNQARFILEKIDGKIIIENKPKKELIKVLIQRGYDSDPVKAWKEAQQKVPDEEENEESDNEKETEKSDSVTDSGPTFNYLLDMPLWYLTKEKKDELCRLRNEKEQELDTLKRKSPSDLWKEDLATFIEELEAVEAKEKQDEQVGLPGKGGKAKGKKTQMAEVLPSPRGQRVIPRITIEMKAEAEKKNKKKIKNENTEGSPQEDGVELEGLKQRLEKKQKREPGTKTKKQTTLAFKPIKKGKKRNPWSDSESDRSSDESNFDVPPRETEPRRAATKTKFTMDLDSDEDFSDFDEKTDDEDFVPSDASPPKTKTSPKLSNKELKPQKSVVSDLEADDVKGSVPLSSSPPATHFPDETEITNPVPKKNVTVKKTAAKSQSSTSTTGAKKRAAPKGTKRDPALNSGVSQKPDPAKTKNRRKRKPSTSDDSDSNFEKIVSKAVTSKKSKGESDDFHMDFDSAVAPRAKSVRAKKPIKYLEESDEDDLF

As to `NC1=C(c2nc3ccccc3s2)C(=O)CN1/N=C\c1ccc(O)c(O)c1` [Compound 19], the “Cancer Cell Growth Inhib.” value in the data set on Cancer Cell is listed as “Y”. Moreover, on Topoisomerase II, the “TOP2 Inhib.” value is listed as “Y” and the “relative activity among compounds tested in the screening round” value is given as “most active”.

Regarding `CC(C)CC(=O)Nc1ccc(NC(=O)c2ccc[nH]c2=S)cc1` [Compound 23], the “Cancer Cell Growth Inhib.” value in the data set on Cancer Cell is listed as “Y”. For the same compound, at Topoisomerase II, the “TOP2 Inhib.” value is reported as “Y” and the “relative activity among compounds tested in the screening round” value is given as “most active”.

Turning to `O=C(Nc1ccc(CN2CCCC2)cc1)c1ccc[nH]c1=S` [Compound 62], the “Cancer Cell Growth Inhib.” value in the data set on Cancer Cell is reported as “Y”. Besides, the “TOP2 Inhib.” value on Topoisomerase II was “Y”.

Turning to `COc1cccc(Oc2ccc(NC(=O)c3ccc[nH]c3=S)cc2)c1` [Compound 63], the “Cancer Cell Growth Inhib.” value with Cancer Cell is on record as “Y”. In addition, the “TOP2 Inhib.” value at Topoisomerase II is recorded as “Y”.

For `CCC(=O)Nc1ccc(NC(=O)c2ccc[nH]c2=S)cc1` [Compound 64], the “Cancer Cell Growth Inhib.” value in the data set on Cancer Cell was “Y”. Also, the “TOP2 Inhib.” value on Topoisomerase II was “Y”.

On to `N#Cc1ccc(Oc2ccc(NC(=O)c3ccc[nH]c3=S)cc2)cc1` [Compound 65], for which the “Cancer Cell Growth Inhib.” value in the data set on Cancer Cell is listed as “Y”. On Topoisomerase II, the “TOP2 Inhib.” value is “Y”.

For the compound `CC(NC(=O)OC(C)(C)C)c1ccc(NC(=O)c2ccc[nH]c2=S)cc1` (centres unmarked) [Compound 67], the “Cancer Cell Growth Inhib.” value with Cancer Cell is “Y”. Besides, the “TOP2 Inhib.” value on Topoisomerase II was “Y”.

In the case of `COc1ccc(Sc2ccc(NC(=O)c3ccc[nH]c3=S)cc2)cc1` [Compound 68], the “Cancer Cell Growth Inhib.” value in the data set with Cancer Cell was “Y”. The “TOP2 Inhib.” value at Topoisomerase II is recorded as “Y”.

For the compound `O=C(Nc1ccc(NC2CCCC2)cc1)c1ccc[nH]c1=S` [Compound 70], in the data set on Cancer Cell, the “Cancer Cell Growth Inhib.” value was “Y”. Moreover, at Topoisomerase II, the “TOP2 Inhib.” value is recorded as “Y”.

With `CSc1ccccc1C(=O)Nc1ccc(NC(=O)CC(C)C)cc1` [Compound 72], the “Cancer Cell Growth Inhib.” value with Cancer Cell was “Y”. At Topoisomerase II, the “TOP2 Inhib.” value is “Y”.

As to `O=C(Nc1ccc(NC(=O)N2CCCCCC2)cc1)c1ccc[nH]c1=S` [Compound 75], the “Cancer Cell Growth Inhib.” value in the data set with Cancer Cell is on record as “Y”. In addition, the “TOP2 Inhib.” value at Topoisomerase II is listed as “Y”.

Take `CC(Nc1ccc(NC(=O)c2ccc[nH]c2=S)cc1Cl)c1ccccc1` (centres unmarked) [Compound 77]: the “Cancer Cell Growth Inhib.” value in the data set with Cancer Cell is reported as “Y”. For the same compound, on Topoisomerase II, the “TOP2 Inhib.” value was “Y”.

Regarding `O=C(Nc1ccc(N2CCN(C(=O)c3ccoc3)CC2)cc1)c1ccc(Cl)c(Cl)c1` [Compound 88], the “Cancer Cell Growth Inhib.” value with Cancer Cell is on record as “Y”. The “TOP2 Inhib.” value at Topoisomerase II is given as “Y”.

Take `O=C(Nc1ccc(-n2cc(Br)cn2)nc1)c1ccc2ncsc2c1` [Compound 89]: the “Cancer Cell Growth Inhib.” value in the data set with Cancer Cell is “Y”. Besides, at Topoisomerase II, the “TOP2 Inhib.” value is on record as “Y”.

Turning to `Cc1ccc(C(=O)Nc2ccc(OC3CCCCC3O)cc2)c(=S)[nH]1` (centres unmarked) [Compound 90], the “Cancer Cell Growth Inhib.” value in the data set with Cancer Cell is “Y”. Also, at Topoisomerase II, the “TOP2 Inhib.” value is “Y”.

As to `O=C(Nc1ccc(N2CCc3sccc3C2)nc1)c1cccnc1S` [Compound 110], the “Cancer Cell Growth Inhib.” value in the data set with Cancer Cell was “Y”. The “TOP2 Inhib.” value at Topoisomerase II is listed as “Y”.

On to `COc1ccc(Nc2ccc(NC(=O)c3cccnc3S)cc2)cc1` [Compound 112], for which the “Cancer Cell Growth Inhib.” value in the data set with Cancer Cell is “Y”. The “TOP2 Inhib.” value on Topoisomerase II was “Y”.

Turning to `CCC(=O)Nc1ccc(Nc2ccc(NC(=O)c3cccnc3S)cc2)cc1` [Compound 113], the “Cancer Cell Growth Inhib.” value in the data set with Cancer Cell is “Y”. Moreover, on Topoisomerase II, the “TOP2 Inhib.” value is reported as “Y”.

For `CC(Nc1ccc(NC(=O)c2ccc[nH]c2=S)cc1)c1ccccc1` (centres unmarked) [Compound 115], the “Cancer Cell Growth Inhib.” value in the data set with Cancer Cell is given as “Y”. Also, at Topoisomerase II, the “TOP2 Inhib.” value is “Y”.

On to `CC(C(C)N1CC(=O)NC(=O)C1)N1CC(=O)NC(=O)C1` (centres unmarked) [ICRF, 4-[2-(3,5-Dioxo-1-piperazinyl)-1-methylpropyl]piperazine-2,6-dione, reference compound], for which the “DNA damage in cells by H2AXγ protein level” value with K562 cells was “do not cause DNA damage”.
